Assay [1] is described as follows: NIH-3T3 fibroblast cytotoxicity, dose response, cytotoxicity control, cell-based, fluorescence, Alamar Blue, secondary assay (AID 2327).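 Also: NIH-3T3 mouse fibroblasts cultured with fluconazole at 8 µg/mL.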 Type of assay: functional. Background: Resazurin is reduced to fluorescent resorufin, in cell work by metabolically active cells.
In assay [2] the target is Peroxisome proliferator-activated receptor gamma/Nuclear receptor coactivator 2 (Homo sapiens, UniProt P37231). Description: TR-FRET dose response biochemical High Throughput Screening assay for agonists of the steroid receptor coactivator 2 (SRC-2) recruitment by the peroxisome proliferator-activated receptor gamma (PPAR gamma): non-selective agonists. [Related pubchem assays: 1297, 1032 ]. Type of assay: functional.

For assay [3], the target named is UDP-galactopyranose mutase (Mycobacterium tuberculosis, UniProt P9WIQ1). Description: Inhibitors of Mycobacterium tuberculosis UDP-galactopyranose mutase (UGM) enzyme Measured in Biochemical System Using Plate Reader - 2105-02_Inhibitor_Dose_CherryPick_Activity. [Related pubchem assays (depositor defined):AID504439].
UDP-galactopyranose mutase, sequence (P9WIQ1 whole entry): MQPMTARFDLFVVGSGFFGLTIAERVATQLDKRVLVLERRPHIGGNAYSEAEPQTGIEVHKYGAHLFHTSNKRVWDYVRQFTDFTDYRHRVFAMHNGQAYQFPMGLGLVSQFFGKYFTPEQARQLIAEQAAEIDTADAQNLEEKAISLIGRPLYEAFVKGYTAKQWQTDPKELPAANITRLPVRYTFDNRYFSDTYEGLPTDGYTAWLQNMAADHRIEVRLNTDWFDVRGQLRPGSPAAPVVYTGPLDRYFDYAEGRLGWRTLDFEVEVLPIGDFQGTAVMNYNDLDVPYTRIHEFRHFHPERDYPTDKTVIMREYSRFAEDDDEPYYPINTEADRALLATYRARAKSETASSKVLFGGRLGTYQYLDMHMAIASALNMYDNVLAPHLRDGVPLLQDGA
The next assay concerns the target Keap1/Nrf2 (Homo sapiens, UniProt Q14145). Description: disruptors of Keap1 binding to Nrf2 peptide – biochemical, fluorescence polarization, cherry-picked samples, dose response (AID 588683). (Polarisation of emitted light reports the rotation of a fluorescent probe.)
The target in assay [4] is T1, Zinc finger protein mex-5 (Caenorhabditis elegans, UniProt Q9XUB2).
T1 sequence (Q9XUB2 whole entry): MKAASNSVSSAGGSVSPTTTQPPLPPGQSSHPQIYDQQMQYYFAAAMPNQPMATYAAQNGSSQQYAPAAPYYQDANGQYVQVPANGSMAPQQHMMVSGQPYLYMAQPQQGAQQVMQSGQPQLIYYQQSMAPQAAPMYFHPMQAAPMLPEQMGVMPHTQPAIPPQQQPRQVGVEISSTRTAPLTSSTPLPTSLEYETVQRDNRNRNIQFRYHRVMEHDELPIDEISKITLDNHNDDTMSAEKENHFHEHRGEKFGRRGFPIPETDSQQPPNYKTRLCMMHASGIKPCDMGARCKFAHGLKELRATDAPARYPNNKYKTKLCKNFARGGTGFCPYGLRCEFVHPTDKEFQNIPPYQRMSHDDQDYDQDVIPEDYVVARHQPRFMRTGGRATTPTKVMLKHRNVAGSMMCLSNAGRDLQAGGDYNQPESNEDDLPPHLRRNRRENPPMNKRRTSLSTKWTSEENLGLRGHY
Description: potency of MEX-5 RNA-binding blockers – biochemical, C. elegans, fluorescence polarization, dose response (AID 1960).

Assay [5] concerns the target Peroxisome proliferator-activated receptor gamma/Nuclear receptor coactivator 1 (Homo sapiens, UniProt P37231). The assay is described as follows: TR-FRET dose response biochemical High Throughput Screening assay for agonists of the steroid receptor coactivator 1 (SRC-1) recruitment by the peroxisome proliferator-activated receptor gamma (PPAR gamma): non-selective agonists. [Related pubchem assays (depositor defined):AID1300, AID1808, AID504735, AID631]. Format: protein assay. (In TR-FRET formats the signal depends on donor and acceptor labels being close together.)

In assay [6] the target is T2, RNA-binding protein pos-1 (Caenorhabditis elegans, UniProt G5EF15).
T2 sequence (G5EF15 whole entry): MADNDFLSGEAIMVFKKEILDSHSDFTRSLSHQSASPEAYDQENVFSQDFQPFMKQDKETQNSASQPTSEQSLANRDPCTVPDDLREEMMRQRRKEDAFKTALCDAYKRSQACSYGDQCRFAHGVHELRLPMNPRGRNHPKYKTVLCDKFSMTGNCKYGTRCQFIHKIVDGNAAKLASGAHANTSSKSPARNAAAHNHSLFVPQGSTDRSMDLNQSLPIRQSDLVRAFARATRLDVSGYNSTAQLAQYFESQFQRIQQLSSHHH
Description: disruptors of C. elegans POS-1 RNA interaction – biochemical, fluorescence polarization, dose response (AID 1964).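 Also: purified POS-1 fused to maltose binding protein made in E. coli; potency of compounds blocking POS-1 binding to fluorescent RNA.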

A short description of assay [7]: fluconazole-exposed Candida albicans growth modulators – fluorescence, retest, confirmation (AID 2467). Format: functional, cell-based.
The target of assay [8] is Peroxisome proliferator-activated receptor gamma/Nuclear receptor coactivator 3 (Homo sapiens, UniProt P37231). Description: TR-FRET dose response biochemical High Throughput Screening assay for agonists of the steroid receptor coactivator 3 (SRC-3) recruitment by the peroxisome proliferator-activated receptor gamma (PPAR gamma): non-selective agonists. [Related pubchem assays: 1301 (Confirmation screen.), 1048 (Primary screen.)]. Format: functional.

In another assay the target is ORF 73 (Human herpesvirus 8, UniProt O40947). The assay is described as follows: KSHV LANA DNA-binding disruption – biochemical, fluorescence polarization, cherry-picked samples, dose response (AID 504725).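 Also: fluorescence polarization of a labeled DNA duplex reporting LANA DNA binding; potency is for inhibitors that block LANA binding to the DNA.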 Also noted: species or system Human gammaherpesvirus 8.
ORF 73, sequence (O40947 whole entry, the tested form may be a part): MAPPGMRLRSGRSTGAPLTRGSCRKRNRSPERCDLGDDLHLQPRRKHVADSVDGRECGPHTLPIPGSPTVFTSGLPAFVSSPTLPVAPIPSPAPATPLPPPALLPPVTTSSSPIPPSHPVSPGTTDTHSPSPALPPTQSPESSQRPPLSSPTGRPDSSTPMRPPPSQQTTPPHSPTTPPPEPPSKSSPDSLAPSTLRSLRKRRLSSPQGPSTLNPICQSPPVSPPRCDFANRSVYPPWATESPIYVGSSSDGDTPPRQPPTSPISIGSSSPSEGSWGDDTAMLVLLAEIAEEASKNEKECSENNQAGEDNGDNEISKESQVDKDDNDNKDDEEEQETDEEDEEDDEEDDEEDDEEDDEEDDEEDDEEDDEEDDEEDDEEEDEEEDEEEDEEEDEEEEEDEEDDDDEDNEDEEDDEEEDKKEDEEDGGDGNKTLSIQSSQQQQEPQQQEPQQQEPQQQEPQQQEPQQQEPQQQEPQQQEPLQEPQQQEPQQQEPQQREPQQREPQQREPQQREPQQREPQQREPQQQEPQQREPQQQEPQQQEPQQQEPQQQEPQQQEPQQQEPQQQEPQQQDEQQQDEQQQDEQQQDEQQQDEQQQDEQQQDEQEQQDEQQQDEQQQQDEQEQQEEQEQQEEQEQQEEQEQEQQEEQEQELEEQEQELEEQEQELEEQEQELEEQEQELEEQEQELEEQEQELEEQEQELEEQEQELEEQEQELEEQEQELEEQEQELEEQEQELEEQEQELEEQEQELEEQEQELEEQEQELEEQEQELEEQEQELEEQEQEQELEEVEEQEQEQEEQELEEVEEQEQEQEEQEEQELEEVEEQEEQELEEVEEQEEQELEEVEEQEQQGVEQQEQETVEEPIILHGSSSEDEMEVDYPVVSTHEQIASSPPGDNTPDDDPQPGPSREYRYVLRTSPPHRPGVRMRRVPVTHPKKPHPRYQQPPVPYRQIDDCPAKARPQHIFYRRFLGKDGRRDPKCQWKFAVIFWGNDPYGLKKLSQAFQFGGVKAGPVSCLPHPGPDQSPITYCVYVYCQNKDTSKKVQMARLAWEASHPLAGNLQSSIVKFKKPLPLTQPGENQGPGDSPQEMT
The target in assay [9] is Nucleotide-binding oligomerization domain-containing protein 2 (Homo sapiens, UniProt Q9HC29). The assay is described as follows: PubChem AID 2334. Format: functional.
Assay [10] has as its system HEK293. The assay is described as follows: cells. As to conditions: Homo sapiens.
Assay [11] has as its target T3, Nucleotide-binding oligomerization domain-containing protein 1 (Homo sapiens, UniProt Q9Y239).
T3 sequence (Q9Y239 whole entry): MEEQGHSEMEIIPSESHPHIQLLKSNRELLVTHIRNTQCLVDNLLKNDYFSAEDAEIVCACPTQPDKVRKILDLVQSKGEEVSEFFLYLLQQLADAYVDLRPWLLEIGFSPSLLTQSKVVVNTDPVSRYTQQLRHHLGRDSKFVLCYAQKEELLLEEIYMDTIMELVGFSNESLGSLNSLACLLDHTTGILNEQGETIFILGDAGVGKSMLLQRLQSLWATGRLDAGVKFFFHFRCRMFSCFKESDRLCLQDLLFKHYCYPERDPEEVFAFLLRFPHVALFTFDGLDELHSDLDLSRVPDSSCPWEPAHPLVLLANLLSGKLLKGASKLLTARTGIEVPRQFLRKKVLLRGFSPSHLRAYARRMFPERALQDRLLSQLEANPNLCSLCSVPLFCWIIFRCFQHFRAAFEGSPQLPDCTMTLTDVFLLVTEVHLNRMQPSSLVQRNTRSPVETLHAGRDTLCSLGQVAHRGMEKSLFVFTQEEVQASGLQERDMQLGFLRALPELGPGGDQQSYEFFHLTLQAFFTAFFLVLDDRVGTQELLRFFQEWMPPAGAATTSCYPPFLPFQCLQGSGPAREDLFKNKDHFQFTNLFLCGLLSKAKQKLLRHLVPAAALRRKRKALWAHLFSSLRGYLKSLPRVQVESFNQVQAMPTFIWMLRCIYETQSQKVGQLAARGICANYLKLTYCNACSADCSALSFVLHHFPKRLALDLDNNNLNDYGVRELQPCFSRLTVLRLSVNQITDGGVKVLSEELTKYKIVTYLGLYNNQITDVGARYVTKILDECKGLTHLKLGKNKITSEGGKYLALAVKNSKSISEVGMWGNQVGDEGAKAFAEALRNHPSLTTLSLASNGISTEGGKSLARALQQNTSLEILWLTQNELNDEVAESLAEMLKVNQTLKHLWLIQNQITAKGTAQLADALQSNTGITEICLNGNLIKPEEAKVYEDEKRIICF
Description: blockers of NOD1 pathway activity – revised, SAR follow-up (AID 2333). Type of assay: functional.

Assay [12] deals with HEK293. Description: cells. Type of assay: functional, cell-based. To be noted: Homo sapiens.
Assay [13] concerns HEK293. The assay is described as follows: inhibition of NOD1-driven NF-kB reporter – cell-based, luminescence, uHTS, primary screen (AID 1578). To be noted: Homo sapiens. Type of assay: functional.
Assay [14] concerns HEK293. The assay is described as follows: NOD2 signaling inhibitors in MDP-stimulated cells, cell-based, uHTS, luminescence (AID 2001). Format: functional. As to conditions: Homo sapiens.
The target in assay [15] is T4, Ubiquitin-conjugating enzyme E2 N (Homo sapiens, UniProt P61088).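 Also: Dose-response confirmation in a TR-FRET assay detecting UBC13-driven polyubiquitin chain formation, inhibition measured.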
T4 sequence (P61088 whole entry): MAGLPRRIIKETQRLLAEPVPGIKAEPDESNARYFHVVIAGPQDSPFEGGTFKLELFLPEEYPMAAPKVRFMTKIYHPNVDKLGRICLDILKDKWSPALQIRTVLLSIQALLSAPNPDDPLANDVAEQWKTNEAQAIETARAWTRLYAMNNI
Format: functional.

For the next assay, the target named is Tumor necrosis factor (Homo sapiens, UniProt P01375). Description: analog potency on TNFa NF-kB signaling – cell-based, revised, SAR follow-up (AID 2337). Format: functional.
Tumor necrosis factor, sequence (P01375 whole entry): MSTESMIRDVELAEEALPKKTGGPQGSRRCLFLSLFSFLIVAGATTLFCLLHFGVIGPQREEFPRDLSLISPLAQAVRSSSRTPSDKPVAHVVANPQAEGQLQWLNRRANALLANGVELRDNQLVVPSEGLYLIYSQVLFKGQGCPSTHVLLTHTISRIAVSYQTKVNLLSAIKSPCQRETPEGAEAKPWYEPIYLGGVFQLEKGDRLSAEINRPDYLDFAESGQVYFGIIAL
Assay [16] has as its system HEK293. The assay is described as follows: cells. Format: functional, cell-based. As to conditions: Homo sapiens. The source holds these as a separate data set.
For the next assay, the target named is SUMO E1/E2 (Homo sapiens, UniProt P63279+Q9UBE0+Q9UBT2). The assay is described as follows: SAR analysis of SUMOylation using HTRF in an in-Vitro dose response assay. [Related pubchem assays (depositor defined):AID2006, AID2011, AID2018, AID2069, AID2658]. Type of assay: functional.
Assay [17] addresses T5, Voltage-gated N-type calcium channel alpha-1B subunit/Amyloid beta A4 precursor protein-binding family A member 1 (Homo sapiens, UniProt Q00975+Q02410). The assay is described as follows: disruptors of Mint-PDZ/N-type channel peptide interaction – biochemical, HTRF, SAR follow-up (AID 2489). Type of assay: functional.
Assay [18] has as its target T5, Voltage-gated N-type calcium channel alpha-1B subunit/Amyloid beta A4 precursor protein-binding family A member 1. The assay is described as follows: disruptors of Mint-PDZ/N-type channel peptide interaction – biochemical, HTRF, set 2, SAR follow-up (AID 434980). Format: functional.

The source made the active and inactive calls.

T5 sequence (Q00975 whole entry): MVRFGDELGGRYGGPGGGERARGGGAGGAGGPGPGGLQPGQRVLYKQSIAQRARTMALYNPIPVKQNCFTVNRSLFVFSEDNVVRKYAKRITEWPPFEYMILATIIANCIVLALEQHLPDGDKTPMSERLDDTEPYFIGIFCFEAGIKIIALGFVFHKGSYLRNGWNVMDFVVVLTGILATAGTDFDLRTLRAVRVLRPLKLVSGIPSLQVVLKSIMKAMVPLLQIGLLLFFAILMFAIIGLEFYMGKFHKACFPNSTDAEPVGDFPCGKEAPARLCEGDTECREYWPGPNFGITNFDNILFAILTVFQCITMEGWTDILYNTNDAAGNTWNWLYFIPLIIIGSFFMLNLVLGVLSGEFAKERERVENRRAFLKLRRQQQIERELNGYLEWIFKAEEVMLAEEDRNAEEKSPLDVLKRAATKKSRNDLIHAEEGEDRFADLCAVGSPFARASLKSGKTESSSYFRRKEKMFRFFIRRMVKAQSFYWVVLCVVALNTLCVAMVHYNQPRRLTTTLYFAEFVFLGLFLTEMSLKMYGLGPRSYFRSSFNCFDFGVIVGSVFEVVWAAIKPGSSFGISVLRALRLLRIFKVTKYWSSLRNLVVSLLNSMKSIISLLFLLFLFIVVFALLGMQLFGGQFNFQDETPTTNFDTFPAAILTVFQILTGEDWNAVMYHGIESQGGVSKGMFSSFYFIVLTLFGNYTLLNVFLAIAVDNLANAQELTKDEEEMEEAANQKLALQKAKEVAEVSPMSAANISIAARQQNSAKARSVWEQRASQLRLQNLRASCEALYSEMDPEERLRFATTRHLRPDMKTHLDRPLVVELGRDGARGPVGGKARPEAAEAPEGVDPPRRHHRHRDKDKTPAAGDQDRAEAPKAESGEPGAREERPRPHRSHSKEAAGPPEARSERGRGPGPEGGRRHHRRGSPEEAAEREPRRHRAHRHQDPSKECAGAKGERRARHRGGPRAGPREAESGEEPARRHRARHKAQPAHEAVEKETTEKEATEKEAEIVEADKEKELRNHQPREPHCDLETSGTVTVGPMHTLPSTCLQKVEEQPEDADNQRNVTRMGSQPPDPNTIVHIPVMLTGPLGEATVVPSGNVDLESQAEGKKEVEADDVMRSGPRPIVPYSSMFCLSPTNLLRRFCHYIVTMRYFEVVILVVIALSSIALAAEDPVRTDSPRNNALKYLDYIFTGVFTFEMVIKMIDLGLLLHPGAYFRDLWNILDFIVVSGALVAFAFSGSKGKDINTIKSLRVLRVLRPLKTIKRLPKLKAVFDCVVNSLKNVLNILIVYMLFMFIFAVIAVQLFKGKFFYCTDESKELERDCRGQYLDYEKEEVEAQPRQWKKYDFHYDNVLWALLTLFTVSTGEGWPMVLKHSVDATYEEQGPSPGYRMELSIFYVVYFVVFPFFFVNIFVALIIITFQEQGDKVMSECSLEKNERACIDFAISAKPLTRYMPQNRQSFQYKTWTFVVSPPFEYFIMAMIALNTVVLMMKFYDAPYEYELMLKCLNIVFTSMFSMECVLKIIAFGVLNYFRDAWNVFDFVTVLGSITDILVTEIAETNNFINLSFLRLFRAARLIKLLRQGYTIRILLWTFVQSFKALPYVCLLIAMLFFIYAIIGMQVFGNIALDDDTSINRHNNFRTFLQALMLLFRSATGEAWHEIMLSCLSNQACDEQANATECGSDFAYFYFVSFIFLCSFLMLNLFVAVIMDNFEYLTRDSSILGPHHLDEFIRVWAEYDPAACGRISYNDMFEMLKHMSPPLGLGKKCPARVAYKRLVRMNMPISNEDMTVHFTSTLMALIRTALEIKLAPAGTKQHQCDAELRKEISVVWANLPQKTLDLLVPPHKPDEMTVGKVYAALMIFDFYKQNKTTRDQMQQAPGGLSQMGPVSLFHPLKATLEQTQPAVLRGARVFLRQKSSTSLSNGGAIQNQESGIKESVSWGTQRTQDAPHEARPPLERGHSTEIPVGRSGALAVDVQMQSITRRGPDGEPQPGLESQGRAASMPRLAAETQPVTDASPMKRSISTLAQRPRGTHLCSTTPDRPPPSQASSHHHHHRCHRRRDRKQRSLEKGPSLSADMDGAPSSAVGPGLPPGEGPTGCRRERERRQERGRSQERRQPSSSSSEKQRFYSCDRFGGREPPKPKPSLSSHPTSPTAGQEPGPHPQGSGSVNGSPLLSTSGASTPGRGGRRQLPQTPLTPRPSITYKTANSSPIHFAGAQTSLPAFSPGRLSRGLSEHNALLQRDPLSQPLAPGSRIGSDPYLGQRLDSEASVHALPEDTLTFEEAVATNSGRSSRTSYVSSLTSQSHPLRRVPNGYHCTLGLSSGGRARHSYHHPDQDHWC
T5 sequence (Q02410 whole entry): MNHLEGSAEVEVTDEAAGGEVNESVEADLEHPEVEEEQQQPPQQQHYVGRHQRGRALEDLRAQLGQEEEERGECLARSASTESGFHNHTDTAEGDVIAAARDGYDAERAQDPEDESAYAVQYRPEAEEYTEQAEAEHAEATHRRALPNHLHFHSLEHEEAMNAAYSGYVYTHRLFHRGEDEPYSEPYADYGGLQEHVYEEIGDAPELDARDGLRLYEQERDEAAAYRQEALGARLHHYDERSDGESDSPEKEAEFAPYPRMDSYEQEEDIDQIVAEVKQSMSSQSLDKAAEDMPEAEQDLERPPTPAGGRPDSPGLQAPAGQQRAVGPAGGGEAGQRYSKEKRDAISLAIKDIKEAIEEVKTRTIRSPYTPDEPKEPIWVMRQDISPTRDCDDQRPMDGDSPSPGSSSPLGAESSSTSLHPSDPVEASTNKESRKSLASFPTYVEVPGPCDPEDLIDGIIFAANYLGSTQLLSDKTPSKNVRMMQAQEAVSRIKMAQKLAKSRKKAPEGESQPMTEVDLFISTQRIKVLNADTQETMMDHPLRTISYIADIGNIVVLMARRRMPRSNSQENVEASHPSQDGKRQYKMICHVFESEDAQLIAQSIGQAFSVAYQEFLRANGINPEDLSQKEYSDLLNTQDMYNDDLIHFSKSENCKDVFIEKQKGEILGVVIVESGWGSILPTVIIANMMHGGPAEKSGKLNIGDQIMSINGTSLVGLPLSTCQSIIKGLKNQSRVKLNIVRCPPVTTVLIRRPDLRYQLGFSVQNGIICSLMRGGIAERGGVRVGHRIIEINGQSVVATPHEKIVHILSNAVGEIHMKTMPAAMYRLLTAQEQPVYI

For the molecule `COc1ccc(C2C(C(=O)c3cccs3)=C(O)C(=O)N2c2nncs2)cc1` (configuration not stated), the EC50 – broadly, the concentration needed to bring the measured effect to its halfway point – was > 150 µM (inconclusive) in [1]; > 79.4 µM (not active) in assay [2]; 0.1 µM (inconclusive) in [4]; > 79.4 µM (inactive) in [5]; 0.549 µM (inconclusive) in assay [6]; > 38 µM (not active) in [7]. In addition, the half-maximal effective concentration (EC50) in assay [8] is on record as > 79.4 µM (not active). For the same molecule, the values for the concentration at half-maximal activity (AC50) (in assay [3]; at Keap1/Nrf2; on ORF 73) were 51.7 µM (active), 20.3 µM (active) and 7.29 µM (active), respectively.

Consider `O=S(=O)(Nc1nc2ccccc2[nH]1)c1ccc(Cl)cc1`, for which the IC50 (usually the midpoint of a concentration-inhibition curve) in assay [9] was > 20 µM (inactive); with HEK293 [10] it was > 20 µM (inactive); in assay [11] it was 1.52 µM (active); in the assay on HEK293 [12], > 20 µM (inactive); with HEK293 [14] it was > 20 µM (inactive); in assay [15], > 20 µM (inactive). Also, the IC50 at Tumor necrosis factor and in the assay on HEK293 [16] was > 20 µM (inactive) throughout. Also, the EC50 in the assay on HEK293 [13] is 2.29 µM (active).

Regarding `Cc1ccc(S(=O)(=O)N(C)C)cc1NC(=O)c1cc(-c2ccco2)nc2ccccc12`, the IC50 at SUMO E1/E2 is 4.98 µM (active); in assay [17], > 56.8 µM (inactive); in [18], > 56.8 µM (inactive).
